Results published in the NIST ThermoML archive (doi:10.1016/j.jct.2013.07.010).

What was measured:
[1] = cn = amount concentration of the nth substance listed, in mol/dm3; conditions: 101 kPa, Liquid; for viscosity: Capillary tube (Ostwald / Ubbelohde) method; for mass density: Vibrating tube method
[2] = 101 kPa, Liquid; for viscosity: Capillary tube (Ostwald / Ubbelohde) method; for mass density: Vibrating tube method

CCCC[N+](CCCC)(CCCC)CCCC.[Br-] [tetrabutylammonium bromide] + CO
[1]
Conditions	mass density, 298.15 K [kg/m3]	mass density, 308.15 K [kg/m3]	mass density, 318.15 K [kg/m3]	viscosity, 298.15 K [mPa·s]	viscosity, 308.15 K [mPa·s]	viscosity, 318.15 K [mPa·s]
c1 = 0.02	790.69	780.94	771.06	0.5542	0.4951	0.439
c1 = 0.04	792.74	783.43	773.92	0.581	0.5135	0.4469
c1 = 0.05	794.89	785.33	775.68	0.5973	0.5274	0.4584

CO [methanol]
[2]
Conditions	mass density [kg/m3]	viscosity [mPa·s]
298.15 K	786.62	0.5451
308.15 K	777.18	0.476
318.15 K	767.74	0.4183

CO [methanol] + CCCC[N+](CCCC)(CCCC)CCCC.[Br-]
[1], c2 = 0
Conditions	mass density [kg/m3]	viscosity [mPa·s]
298.15 K	786.62	0.5451
308.15 K	777.18	0.476
318.15 K	767.74	0.4183
